These results are taken from ChEMBL document CHEMBL5236599, “Design, synthesis and biological evaluation of cajanonic acid A analogues as potent PPAR γ antagonists” (Bioorg Med Chem Lett, 2023).

The species entered for one data set is Mus musculus. In words: Hypoglycemic activity in db/db mouse assessed as AUC of blood glucose level by oral glucose tolerance test (reference value: 114.8 mmol.min/L). The format is functional.
In data set [1] the target is T1, Peroxisome proliferator-activated receptor gamma (Homo sapiens, UniProt P37231).
T1 sequence (P37231 whole entry): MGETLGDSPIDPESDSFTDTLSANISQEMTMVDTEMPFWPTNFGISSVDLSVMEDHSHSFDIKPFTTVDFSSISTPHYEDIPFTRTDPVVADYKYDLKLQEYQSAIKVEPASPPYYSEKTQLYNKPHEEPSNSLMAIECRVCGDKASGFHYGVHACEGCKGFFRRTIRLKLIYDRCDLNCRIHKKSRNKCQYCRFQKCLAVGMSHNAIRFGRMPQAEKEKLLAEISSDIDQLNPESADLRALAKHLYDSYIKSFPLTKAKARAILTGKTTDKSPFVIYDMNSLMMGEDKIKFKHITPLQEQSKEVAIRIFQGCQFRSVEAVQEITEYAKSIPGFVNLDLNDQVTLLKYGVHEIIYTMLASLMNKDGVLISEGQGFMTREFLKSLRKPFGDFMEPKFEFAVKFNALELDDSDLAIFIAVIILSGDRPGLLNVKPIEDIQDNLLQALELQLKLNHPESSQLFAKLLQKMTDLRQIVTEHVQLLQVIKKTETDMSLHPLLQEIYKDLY
Kind of data set: Displacement of Fluormone Pan-PPAR Green from human recombinant GST-tagged PPARgamma LBD (201 to 475 residues) expressed in insect cells incubated for 2 hrs in dark by LantahScreen TR-FRET assay. On the technique in general: Time-resolved FRET reads energy transfer from a long-lived donor to a nearby acceptor.

Data set [2] deals with T2, Peroxisome proliferator-activated receptor gamma (Homo sapiens) (UniProt P37231).
T2 sequence (whole entry): T1 sequence (P37231 whole entry)
Kind of data set: Antagonist activity at PPAR-gamma (unknown origin) transfected in human HEK293 cells assessed as decrease in rosiglitazone-induced receptor transactivation at 10 uM by dual-luciferase reporter gene assay relative to control. Format: cell-based. As to conditions: filed as antagonist. (A reporter such as luciferase makes a cellular process visible.)

The target in data set [3] is T2, Peroxisome proliferator-activated receptor gamma (Homo sapiens). Kind of data set: Antagonist activity at PPAR-gamma (unknown origin) transfected in human HEK293 cells assessed as decrease in rosiglitazone-induced receptor transactivation at 1 uM by dual-luciferase reporter gene assay relative to control. The format is cell-based.
Data set [4] in a line: Induction of insulin-sensitizing activity in insulin-resistant human HepG2 cells assessed as increase in glucose consumption at 0.1 uM relative to control. Format: functional.
Data set [5] is described as follows: Induction of insulin-sensitizing activity in insulin-resistant human HepG2 cells assessed as glucose consumption at 0.1 uM (reference value: 5.83 +/-0.101 mM). The format is functional.
Data set [6] can be described thus: Induction of insulin-sensitizing activity in insulin-resistant mouse 3T3-L1 cells assessed as glucose consumption at 0.1 uM (reference value: 3.354 +/- 0.342 mM). The format is functional.
Data set [7] in a line: Induction of insulin-sensitizing activity in insulin-resistant mouse 3T3-L1 cells assessed as increase in glucose consumption at 0.1 uM relative to control. Format: functional.
Data set [8] can be described thus: Induction of insulin-sensitizing activity in insulin-resistant mouse 3T3-L1 cells assessed as increase in glucose consumption at 0.1 uM relative to rosiglitazone. The format is functional.
Data set [9] has as its target T3, Peroxisome proliferator-activated receptor gamma (Mus musculus, UniProt P37238).
T3 sequence (P37238 whole entry): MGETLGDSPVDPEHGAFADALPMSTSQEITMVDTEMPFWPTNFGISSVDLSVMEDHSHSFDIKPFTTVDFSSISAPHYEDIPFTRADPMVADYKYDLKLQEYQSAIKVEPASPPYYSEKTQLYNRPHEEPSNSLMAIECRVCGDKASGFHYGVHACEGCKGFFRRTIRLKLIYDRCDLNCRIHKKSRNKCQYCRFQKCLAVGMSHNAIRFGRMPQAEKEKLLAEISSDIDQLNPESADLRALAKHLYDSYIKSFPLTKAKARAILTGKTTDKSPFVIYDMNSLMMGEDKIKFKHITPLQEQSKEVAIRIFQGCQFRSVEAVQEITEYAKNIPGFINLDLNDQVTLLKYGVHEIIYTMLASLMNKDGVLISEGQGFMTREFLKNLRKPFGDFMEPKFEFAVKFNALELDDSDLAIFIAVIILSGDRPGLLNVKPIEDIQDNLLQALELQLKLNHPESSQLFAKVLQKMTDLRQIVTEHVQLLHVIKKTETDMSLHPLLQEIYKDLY
In words: Agonist activity at PPAR-gamma in mouse 3T3-L1 cells assessed as increase in adipogenesis by measuring increase in oil red staining at 1 uM by Oil-red O staining based analysis relative to control. The format is toxicity, cell-based. Particulars: 3t3-l1, 1 µM.

Data set [10] is described as follows: Cytotoxicity against human HepG2 cells assessed as cell viability at 0.1 uM. As to conditions: read-out: Activity. The format is toxicity, cell-based.
Data set [11] is described as follows: Cytotoxicity against mouse 3T3-L1 cells assessed as cell viability at 0.1 uM. The format is toxicity, cell-based. Particulars: read-out: Activity.

SMILES strings stand for the structures.

As a reminder, the IC50 is the midpoint of a concentration-inhibition curve. Broadly, the inhibition is the change of the read-out against control, counted positive when it falls.

For the compound `CCc1ccc(CCOc2ccc(CC3SC(=O)NC3=O)cc2)nc1` (stereo unspecified) [PIOGLITAZONE], the AUC in the data set listed under Mus musculus came to 94.8 mmol·min/L.
For `Cc1c(C)n(Cc2ccc(C(C)(C)C(=O)O)cc2)c2ccc(C(=O)N[C@@H](C)c3cccc(C4CC4)c3)cc12`, the IC50 in [1] turned out to be 108 nM.
Regarding `COc1cc(O)c(C(=O)O)c(CC(=O)c2cccc(-c3ccccc3Cl)c2)c1CC=C(C)C`, the inhibition came to 96.2% in [2] and 50.2% in data set [3] (filed as antagonist). Besides, the Activity in [4] was 33.27%; in [5], 7.771 mM; in data set [6] it was 6.471 mM; in data set [7], 72.61%; in [9], 7.04%. In addition, the “fold change (FC)” value in data set [8] is 1.6. Besides, in the data set listed under Mus musculus, the AUC is 106 mmol·min/L.
On to `COc1cc(O)c(C(=O)O)c(CC(=O)c2cccc(-c3ccsc3)c2)c1CC=C(C)C`, for which the inhibition is 43.7% in [2] and 24.3% in data set [3]. For the same compound, the Activity in [4] was 3.71%; in data set [5] it was 6.047 mM; in [6] it was 6.404 mM; in data set [7], 70.82%. In [10], the viability at 0.1 µM was under 80%.
In the case of `COc1cc(O)c(C(=O)O)c(CC(=O)c2cccc(-c3cncnc3)c2)c1CC=C(C)C`, the figures for the inhibition in data set [2] and in data set [3] were 55% and 11.5%, respectively. In addition, the Activity in data set [4] is 5.76%; in [5] it was 6.171 mM; in [6] it was 3.405 mM; in data set [7], -11.08%. Moreover, the viability at 0.1 µM in data set [10] is under 80%.
For `COc1cc(CC(=O)c2cccc(-c3ccc(F)cc3)c2)c(C(=O)O)c(O)c1CC=C(C)C`, the Activity in data set [4] is listed as -10.9%; in data set [5], 5.195 mM; in data set [6], 3.741 mM; in data set [7] it was -0.2%. Also, the viability at 0.1 µM in data set [11] is under 50%.
As for `COc1cc(CC(=O)c2cccc(-c3ccccc3C(F)(F)F)c2)c(C(=O)O)c(O)c1CC=C(C)C`, in data set [2], the inhibition came to 40.5%. Besides, the Activity is recorded as 43.51% in data set [4], 8.368 mM in data set [5], 4.333 mM in data set [6] and 15.58% in data set [7]. Further, the viability at 0.1 µM in [11] was under 50%.
